Test results taken from patent US5607934A, “Piperazine derivatives and salts thereof” (Otsuka Pharmaceutical Co., Ltd., priority 1993, dated 1997).
In brackets after ≈: the same amount, converted by molar mass.

Assays:
[1] = test system: releasing of hydrogen peroxide (H2 O2) from the neutrocyte of abdominal cavity of rat; assay: Inhibitory effect against the releasing of hydrogen peroxide (H2O2) from the neutrocyte of abdominal cavity of rat; format: cell-based, SD-strain rat; details: rat neutrocytes 10^6 cells/ml; FMLP 2×10^-6 M; 37° C., 1 hour; OD610
Experimental: Inhibitory effect against the releasing of hydrogen peroxide (H2 O2) from the neutrocyte of abdominal cavity of rat
1%-Casein solution was administered to the abdominal cavity of a SD-strain rat, then 16 hours after the administration, the neutrocytes were obtained by washing the abdominal cavity. Thus obtained neutrocytes were washed with Hank's solution.
In to a reaction mixture consisting of the following ingredients:
______________________________________
HRP (Horse Radish peroxide)
HEPES [N-(2-Hydroxyethyl)pipera-
zine N'-2-ethanesulfonic acid]
Rat neutrocytes 10^6 cells/ml
the test compound was added, then the whole mixture was incubated at 37° C. for 1 hour, and the mixture was subjected to a centrifugal separation at 2,000 rpm for minutes. After the centrifugal separation, 1 ml of the supernatant was sampled and 10 μl of 1N-NaOH aqueous solution was added thereto. Then, the optical absorbance at 610 nm (OD610) of the supernatant was determined by means of using a spectro-photometer.
The IC50 (50% inhibitory concentration) of the test compound was obtained by calculating as the ratio of OD610 of the test group sample to that of the control group sample.

[2] = test system: superoxide radicals (O2^-) released from the peritoneal macrophage cells of guinea pig; assay: Inhibitory effect against superoxide radicals (O2^-) released from the peritoneal macrophage cells of guinea pig by stimulation (FMLP); format: cell-based; details: Cavia porcellus, Peritoneal macrophage cell; guinea pig peritoneal macrophages 2×10^6 cells/ml; FMLP 10^-7 M; cytochrome C reduction, OD550
Experimental: Inhibitory effect against superoxide radicals (O2^-) released from the peritoneal macrophage cells of guinea pig by stimulation:
Mineral oil (15 ml)was intraperitoneally administered to a guinea pig, then 96 hours after the administration, the peritoneal macrophage cells were sampled.
Superoxide radicals (O2^-) were determined by means of reduction of cytochrome C method according to the procedure described in an article written by T. Matsumoto, K. Takeshige and S. Minakami: Biochemical and Biophysical Research Communications, Vol. 88, No. 3, pp. 974-979, (1979).
Into 1 ml of 80 μM-cytochrome C solution, the peritoneal macrophage cells were added to make the final concentration of 2×10^6 cells/ml, then each one of the test compounds of the present invention was added thereto to make the test group sample. On the other hand, water was added in place of the test compound of the present invention to make the control group sample. Each of the test group samples and the control group samples were subjected to pre-incubation at 37° C. for 1 minute.
As to the stimulating agent for releasing superoxide radicals (O2^-), FMLP (formylmethionyl leucyl phenylalanine)was added to each one of the test sample solutions and the control group samples to make the final concentration of FMLP to 10^-7 M, then the sample solutions were subjected to additional reaction by incubation for 1 minute.
Difference between the optical absorbances measured at 550 nm (OD550) of both test group samples and control group samples were determined, the 50% inhibitory concentration (IC50) was obtained by calculating as the ratio of OD550 of the test group sample to that of the control group sample.

[3] = test system: passive Heymann nephritis of rat; assay: Inhibitory effect against increase of urinary proteins in the passive Heymann nephritis of rat; format: in vivo, SD-strain male rats; details: oral, once a day for 7 days, urinary protein, 12th day
Experimental: Inhibitory effect against increase of urinary proteins in the passive Heymann nephritis of rat
SD-strain male rats (7 week old, body weight: 200-230 g)were used as test animals.
An antiserum which will induce passive Heymann nephritis of rat was prepared by procedures according to the method of T. S. Edington, et al. [T. S. Edington, R. J. Glassock and F. J. Dixon: Autologous immune complex nephritis induced with renal tublar antigen. I. Identification and isolation of the pathogenetic antigen. Journal of Experimental Medicine Vol. 127, pp. 555-572 (1968).] as follows:
At the first, an antigen (FX1A fraction) of the renaltublar brush border was sampled from the SD rat. Next, the antigen was admixed with Freund' complete adjuvant, then a New Zealand White rabbit was sensitized therewith. The sensitization procedures were conducted 3 times in every 2 weeks, and 2 weeks after the final sensitization, the blood sample was obtained from the rabbit. […]
Heymann nephritis of the rats were induced by injecting the above-mentionedantiserum to the tail vein of the test rats. […] The urine samples of the rat were taken in time sequentially from the 10th day after the injection, and the amount of urinary protein in the samples were determined. The rate of inhibitory effect (%) against the production of urinary protein performed by the test compound was calculated by the formula as follows: […]

[4] = test system: rat mesangial cell proliferation; assay: Inhibitory effects on rat mesangial cell proliferation (interleukin-1β induced 3H-thymidine incorporation); format: cell-based, SD-strain rat; details: 1 ng/ml interleukin-1β, read-out: Rate of inhibition; for inhibition at 3 µg/mL: concentration 3 μg/ml; for inhibition at 10 µg/mL: concentration 10 μg/ml
Experimental: Inhibitory effects on rat mesangial cell proliferation
The kidney of SD-strain rat was aseptically taken out by excision. and the renal cortex was cut out therefrom. The renal glomeruli were isolated by use of sieve. The glomeruli were cultivated in RPMI1640 culture medium [which contains 10% of FBS (fetal bovine serum)] for 4 weeks. Thus obtained cells were used as mesangial cells.
An experiment of incorporation of thymidine by interleukin-1β was conducted by procedures according to the method of Ganz [Michael B. Ganz; Mary C. Perfetto and Walter F. Boron: American Journal of Physiology, Vol. 259, F269-F278, (1990)]. Thus, 2×10^4 cells/ml of mesangial cells were scattered on a 48-well plate (0.5 ml/well), and the cells were cultivated in RPMI culture medium (which contains 10% of FBS) for 3 days. Then, the culture medium was changed to another RPMI culture medium in which the concentration of FBS was decreased from 10% to 0.5% and cultivated for 3 days. Next, the RPMI culture medium (containing 0.5% of FBS) was changed to other RPMI culture medium to which the test compound and 1 ng/ml of interleukin-1β were added. The cultivation was conducted for 24 hours, then 1 μCi/well of 3H-thymidine was added to the culture medium, and the cultivation was continued for additional 24 hours.
The amount of ^3 H-thymidine being incorporated into the mesangial cells was measured by use of a scintillation counter, and the rate of inhibition (%) in comparison of the test group vs. control group was calculated by the following formula:
Rate of inhibition (%)=[(C-D)/(C-E)]×100
C: the incorporated amount of ^3 H-thymidine in control group;
D: the incorporated amount of ^3 H-thymidine in the case of that test compound was added;
E: the incorporated amount of ^3 H-thymidine in the case of that interleukin-1β was not added.

| SMILES | IC50 [1] [mg/L] | IC50 [2] [mg/L] | Rate of inhibitory effect ([3]; 20 mg/kg/day) [%] | inhibition at 3 µg/mL [4] [%] | inhibition at 10 µg/mL [4] [%] | Rate of inhibitory effect ([3]; 5 mg/kg/day) [%] |
| --- | --- | --- | --- | --- | --- | --- |
| CC(C)C[C@@H]1C(=O)N[C@H](Cc2cc(C(C)(C)C)c(O)c(C(C)(C)C)c2)C(=O)N1O (racemic) [Example 13, (3RS,6RS)-3-(3,5-di-tert-butyl-4-hydroxybenzyl)-1-hydroxy-6-isobutylpiperazine-2,5-dione] | < 5 | 1.3 (≈ 3.21 µM) | 57.8 ± 6.1 | 77.9 ± 8.3 | 122 ± 6.1 |  |
| CCOC(=O)C[C@@H]1NC(=O)[C@@H](Cc2c[nH]c3ccccc23)N(O)C1=O [Example 57] | 3 (≈ 8.69 µM) |  |  | 26.3 ± 5.8 | 56.7 ± 2.9 | 53.1 ± 15.1 |
